Assays:
[1] = Titration with acetic or lactic acid: pH and physical stability (Table D); format: physicochemical
Tyrosinase = biological target: T1, Tyrosinase (Homo sapiens, UniProt P14679); details: tyrosinase inhibitor; cited from earlier work
T1 sequence (P14679 19-529): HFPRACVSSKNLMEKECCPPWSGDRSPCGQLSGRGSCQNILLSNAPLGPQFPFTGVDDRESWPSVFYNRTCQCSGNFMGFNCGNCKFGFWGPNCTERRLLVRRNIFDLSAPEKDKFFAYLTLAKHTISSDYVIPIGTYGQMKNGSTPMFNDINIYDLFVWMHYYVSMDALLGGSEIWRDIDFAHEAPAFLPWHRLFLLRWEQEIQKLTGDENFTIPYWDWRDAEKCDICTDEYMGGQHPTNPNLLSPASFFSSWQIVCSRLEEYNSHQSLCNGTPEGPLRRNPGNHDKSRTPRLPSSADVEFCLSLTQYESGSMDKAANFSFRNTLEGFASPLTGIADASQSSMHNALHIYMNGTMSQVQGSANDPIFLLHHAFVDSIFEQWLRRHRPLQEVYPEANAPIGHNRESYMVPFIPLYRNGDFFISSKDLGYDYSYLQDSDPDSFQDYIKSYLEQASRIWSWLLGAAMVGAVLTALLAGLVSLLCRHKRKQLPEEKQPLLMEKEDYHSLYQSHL

[2] = Histological score of subcutaneous toxicity after 24 h continuous SC LD/CD; format: in vivo, Pigs; details: 0.2% added to LD/CD 5.4/1.5% + 1% ascorbate
[3] = cited from earlier work; for Solubility: in words; for pH compatibility: check mark
[4] = Chemical stability of levodopa formulations with carbidopa (Tables F, G); format: physicochemical; details: Table F
Description: The effect of carbidopa on levodopa formulations was investigated. Levodopa (LD) formulations were prepared with 0, 0.5, 1, 1.5 & 2% by weight carbidopa (CD) and a constant concentration of arginine.
In an additional experiment, LD formulations were prepared with 0, 0.5, 1 & 2% CD and respective concentrations of arginine.

[5] = Colour formation of levodopa/arginine solutions in vitro (FIG. 1A); format: physicochemical
Description: FIG. 1 depicts the effect of carbidopa on the stability of levodopa In Vitro and Ex Vivo: A. 6% weight levodopa and arginine solution with various concentrations (2, 1.5, 1, 0.5%) of carbidopa or no carbidopa were tested for physical stability in vitro. […] B. 7% weight percent levodopa and arginine solution, with or without 2% carbidopa by weight, continuously administered in to the subcutaneous tissue of a 5×5 cm fresh, full-thickness pig skin.
In the absence of air (with N2 in the head space) 0.5% CD was sufficient to inhibit this color formation.

[6] = Stability of carbidopa formulations with levodopa (Table H); format: physicochemical
Text: The effect of levodopa on the stability of carbidopa was investigated. Table H indicates results.

In the case of O=C1O[C@H]([C@@H](O)CO)C(O)=C1O [Ascorbic acid], the “reduction of pH as compared to Na-ascorbate” value [1] is reported as 0.1-0.15 units.
For C[C@H](CS)C(=O)N1CCC[C@H]1C(=O)O [Captopril], the Min required concentration (Tyrosinase) is given as 0.04 mg/mL, the “protection from local toxicity compared to 1% ascorbate alone” value [2] is given as “did not have a supplementary effect” and the Solubility [3] is given as “Soluble”.
In the case of O=C(O)[C@@H](S)[C@@H](S)C(=O)O [DMSA (succimer)], the Solubility [3] is given as “Soluble”.
For CC(C)(S)[C@@H](N)C(=O)O [DPA (D-penicillamine), D-penicillamine], the Solubility [3] is listed as “Soluble”.
For O=C([O-])CN(CCN(CC(=O)[O-])CC(=O)[O-])CC(=O)[O-].[Ca+2].[Na+].[Na+] [EDTA calcium disodium], the “protection from local toxicity compared to 1% ascorbate alone” value [2] is listed as “did not have a supplementary effect” and the pH compatibility [3] is listed as “√”.
In the case of O=C([O-])CN(CCN(CC(=O)[O-])CC(=O)O)CC(=O)O.[Na+].[Na+] [EDTA disodium], the pH compatibility [3] is listed as “√”.
For N[C@@H](CS)C(=O)O [L-Cysteine], the Solubility [3] is given as “Soluble”.
In the case of Cn1cc[nH]c1=S [Methimazole], the Solubility [3] is given as “Soluble”.
For C[C@@](Cc1ccc(O)c(O)c1)(NN)C(=O)O [carbidopa], the “effect on the chemical stability of levodopa” value [4] was “does not have a significant effect”, the “dark yellow color formation” value ([5]; 6% levodopa/arginine solution, in the presence of air, dose related) was “prevented dark yellow color formation” and the “carbidopa concentration sufficient to inhibit color formation” value ([5]; absence of air (N2 in the head space)) was 0.5%. The “sensitivity of CD to oxidation and degradation” value [6] was “more stable in the presence of LD”.
